PMC7865522, “Analyzing Kinase Similarity in Small Molecule and Protein Structural Space to Explore the Limits of Multi-Target Screening” (Molecules, 2021)
Each block holds one compound with its values, some of them ahead of it.

How the values were obtained:
panel of 290 kinases = biological target: panel of 290 kinases; parameters: method as in PMID 18183025; settings: cited from earlier work
ErbB2 [1] = biological target: T1, ErbB2 (Homo sapiens, UniProt P04626); experiment: Eurofins in vitro kinase inhibition assay; assay type: biochemical; settings: compound 20 µM; mean (SD); above 50% significant, 25-50% weak
T1 construct: purchased DiscoverX (KINOMEscan service); host or cells: E. coli BL21-derived host (T7 phage) or HEK-293
T1 sequence (P04626 23-1255): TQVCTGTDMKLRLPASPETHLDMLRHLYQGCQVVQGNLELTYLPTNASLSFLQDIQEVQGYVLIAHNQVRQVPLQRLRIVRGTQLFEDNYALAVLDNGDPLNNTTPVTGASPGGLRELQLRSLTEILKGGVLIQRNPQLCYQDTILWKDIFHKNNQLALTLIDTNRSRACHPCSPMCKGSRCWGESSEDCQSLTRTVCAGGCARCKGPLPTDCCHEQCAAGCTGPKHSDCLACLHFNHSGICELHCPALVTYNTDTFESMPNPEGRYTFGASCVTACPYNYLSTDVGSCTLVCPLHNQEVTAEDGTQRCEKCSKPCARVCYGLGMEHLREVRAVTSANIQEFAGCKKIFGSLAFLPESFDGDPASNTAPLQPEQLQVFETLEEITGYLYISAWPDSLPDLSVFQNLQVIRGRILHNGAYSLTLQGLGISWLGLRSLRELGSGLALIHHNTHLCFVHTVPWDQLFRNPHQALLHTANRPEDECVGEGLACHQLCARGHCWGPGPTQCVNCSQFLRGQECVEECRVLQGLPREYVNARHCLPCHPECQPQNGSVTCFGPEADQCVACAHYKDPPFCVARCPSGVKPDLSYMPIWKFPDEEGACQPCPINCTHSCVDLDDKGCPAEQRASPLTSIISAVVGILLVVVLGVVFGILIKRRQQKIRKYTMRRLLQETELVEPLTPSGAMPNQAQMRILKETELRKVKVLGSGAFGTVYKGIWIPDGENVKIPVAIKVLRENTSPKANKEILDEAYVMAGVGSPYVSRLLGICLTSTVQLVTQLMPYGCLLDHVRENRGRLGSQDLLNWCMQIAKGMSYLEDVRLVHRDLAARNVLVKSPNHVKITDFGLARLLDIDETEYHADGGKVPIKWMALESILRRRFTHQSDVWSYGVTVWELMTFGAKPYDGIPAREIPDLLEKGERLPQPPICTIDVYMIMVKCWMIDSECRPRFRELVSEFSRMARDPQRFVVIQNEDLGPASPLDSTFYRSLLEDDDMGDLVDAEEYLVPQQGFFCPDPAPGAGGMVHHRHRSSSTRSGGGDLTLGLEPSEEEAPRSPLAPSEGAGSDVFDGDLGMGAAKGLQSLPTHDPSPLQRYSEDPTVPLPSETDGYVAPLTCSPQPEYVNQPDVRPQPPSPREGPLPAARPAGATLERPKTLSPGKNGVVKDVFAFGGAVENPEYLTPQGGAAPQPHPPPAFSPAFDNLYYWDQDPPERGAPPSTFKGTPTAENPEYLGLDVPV
How it was run: (§1)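 Compounds tested at 20 µM by a CRO. For EGFR, ErbB2 and BRAF, the kinase was incubated with ATP and a substrate analog and phosphorylation was measured. PI3K was read by HTRF as displacement of biotinylated PIP3 by PIP3 made from PIP2. Values are % inhibition of control activity, mean (SD).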

EGFR [2] = biological target: T2, EGFR (Homo sapiens, UniProt P00533); experiment: Eurofins in vitro kinase inhibition assay; assay type: biochemical; settings: compound 20 µM; mean (SD); above 50% significant, 25-50% weak
T2 construct: purchased DiscoverX (KINOMEscan service); host or cells: E. coli BL21-derived host (T7 phage) or HEK-293
T2 sequence (P00533 25-1210): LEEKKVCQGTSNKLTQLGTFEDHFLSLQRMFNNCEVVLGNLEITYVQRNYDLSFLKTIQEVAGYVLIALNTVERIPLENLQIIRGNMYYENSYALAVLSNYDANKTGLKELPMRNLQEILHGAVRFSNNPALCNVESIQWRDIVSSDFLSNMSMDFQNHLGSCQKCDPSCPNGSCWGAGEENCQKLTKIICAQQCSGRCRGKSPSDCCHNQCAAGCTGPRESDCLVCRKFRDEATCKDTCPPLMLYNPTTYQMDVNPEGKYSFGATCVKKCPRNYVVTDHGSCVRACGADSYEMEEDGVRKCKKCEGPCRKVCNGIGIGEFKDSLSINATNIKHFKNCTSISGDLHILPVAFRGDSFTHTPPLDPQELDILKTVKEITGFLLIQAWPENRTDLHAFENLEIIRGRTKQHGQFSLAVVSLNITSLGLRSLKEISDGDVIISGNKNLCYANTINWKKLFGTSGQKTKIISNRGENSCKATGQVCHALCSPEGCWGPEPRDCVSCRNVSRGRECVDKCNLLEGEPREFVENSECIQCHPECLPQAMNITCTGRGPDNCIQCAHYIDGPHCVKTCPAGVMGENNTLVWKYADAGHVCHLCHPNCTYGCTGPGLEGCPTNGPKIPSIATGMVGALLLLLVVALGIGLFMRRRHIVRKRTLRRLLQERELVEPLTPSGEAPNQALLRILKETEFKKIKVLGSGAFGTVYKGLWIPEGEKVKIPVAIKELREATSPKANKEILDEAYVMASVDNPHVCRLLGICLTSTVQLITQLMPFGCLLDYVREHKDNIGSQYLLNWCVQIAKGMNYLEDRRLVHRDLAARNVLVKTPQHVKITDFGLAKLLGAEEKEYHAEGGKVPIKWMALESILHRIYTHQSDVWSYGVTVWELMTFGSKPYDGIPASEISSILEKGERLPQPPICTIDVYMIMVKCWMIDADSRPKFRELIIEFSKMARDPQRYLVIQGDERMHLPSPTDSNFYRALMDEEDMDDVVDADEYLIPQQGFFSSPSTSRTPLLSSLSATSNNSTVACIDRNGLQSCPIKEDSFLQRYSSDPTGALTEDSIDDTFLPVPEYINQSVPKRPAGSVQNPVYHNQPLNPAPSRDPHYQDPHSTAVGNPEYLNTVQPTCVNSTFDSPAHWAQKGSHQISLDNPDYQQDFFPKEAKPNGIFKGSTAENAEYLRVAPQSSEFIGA
How it was run: as §1

BRAF [3] = biological target: T3, BRAF (Homo sapiens, UniProt P15056); experiment: Eurofins in vitro kinase inhibition assay; assay type: biochemical; settings: compound 20 µM; mean (SD); above 50% significant, 25-50% weak
T3 construct: purchased DiscoverX (KINOMEscan service); host or cells: E. coli BL21-derived host (T7 phage) or HEK-293
T3 sequence (P15056 whole entry): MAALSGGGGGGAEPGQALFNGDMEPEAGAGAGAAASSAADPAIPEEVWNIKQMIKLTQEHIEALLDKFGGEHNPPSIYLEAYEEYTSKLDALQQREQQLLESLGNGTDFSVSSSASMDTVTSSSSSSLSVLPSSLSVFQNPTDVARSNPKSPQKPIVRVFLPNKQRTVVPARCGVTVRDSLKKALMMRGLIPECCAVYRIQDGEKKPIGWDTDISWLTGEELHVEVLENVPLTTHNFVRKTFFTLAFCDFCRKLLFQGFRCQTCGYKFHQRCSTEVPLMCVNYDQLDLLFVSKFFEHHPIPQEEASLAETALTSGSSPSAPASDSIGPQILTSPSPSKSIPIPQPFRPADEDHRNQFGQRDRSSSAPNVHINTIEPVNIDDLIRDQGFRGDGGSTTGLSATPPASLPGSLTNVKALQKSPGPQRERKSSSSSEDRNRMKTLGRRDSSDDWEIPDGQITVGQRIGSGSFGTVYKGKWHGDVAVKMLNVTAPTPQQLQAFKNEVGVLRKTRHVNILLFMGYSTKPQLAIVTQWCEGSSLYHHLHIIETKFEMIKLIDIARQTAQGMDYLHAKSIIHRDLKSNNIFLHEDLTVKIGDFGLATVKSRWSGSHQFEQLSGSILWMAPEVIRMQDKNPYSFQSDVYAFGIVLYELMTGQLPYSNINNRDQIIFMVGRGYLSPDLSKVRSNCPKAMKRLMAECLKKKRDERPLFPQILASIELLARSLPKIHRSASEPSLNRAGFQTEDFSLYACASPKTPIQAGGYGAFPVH
How it was run: as §1

PI3K [4] = biological target: T4, PI3K (Homo sapiens, UniProt P42336); experiment: Eurofins in vitro kinase inhibition assay (HTRF, PIP3 displacement); assay type: biochemical; parameters: purchased Eurofins Cerep (contract assay); settings: compound 20 µM; mean (SD); above 50% significant, 25-50% weak
How it was run: as §1

PI3K [5] = biological target: T4, PI3K; experiment: DiscoverX KINOMEscan competition binding assay; parameters: purchased DiscoverX (KINOMEscan service); host or cells: E. coli BL21-derived host (T7 phage) or HEK-293; settings: compound 10 µM; lower values = higher affinity; below 35% = significant binding
How it was run: (§2)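 Kinase binding measured by competition of test compound (10 µM) with an immobilized biotinylated ligand on streptavidin beads, 1 h at room temperature. Kinases were T7 phage-tagged or HEK-293-expressed and DNA-tagged. Bound kinase was eluted and quantified by qPCR; values are % of control, lower meaning stronger binding.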

ErbB2 [6] = biological target: T1, ErbB2; experiment: DiscoverX KINOMEscan competition binding assay; settings: compound 10 µM; lower values = higher affinity; below 35% = significant binding
How it was run: as §2

p38α = biological target: T5, p38α (Homo sapiens, UniProt Q16539); experiment: DiscoverX KINOMEscan competition binding assay; settings: compound 10 µM; lower values = higher affinity; below 35% = significant binding
T5 construct: purchased DiscoverX (KINOMEscan service); host or cells: E. coli BL21-derived host (T7 phage) or HEK-293
T5 sequence (Q16539 whole entry): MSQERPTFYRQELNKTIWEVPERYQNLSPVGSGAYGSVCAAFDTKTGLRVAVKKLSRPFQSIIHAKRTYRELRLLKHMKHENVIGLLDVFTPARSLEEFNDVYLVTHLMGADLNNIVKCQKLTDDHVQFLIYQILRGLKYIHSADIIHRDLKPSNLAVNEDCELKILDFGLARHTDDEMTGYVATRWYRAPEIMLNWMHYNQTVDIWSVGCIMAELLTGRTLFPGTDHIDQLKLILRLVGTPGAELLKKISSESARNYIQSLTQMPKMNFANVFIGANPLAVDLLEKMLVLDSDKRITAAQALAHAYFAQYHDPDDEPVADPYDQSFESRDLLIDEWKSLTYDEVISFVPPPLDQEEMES
How it was run: as §2

EGFR [7] = biological target: T2, EGFR; experiment: DiscoverX KINOMEscan competition binding assay; settings: compound 10 µM; lower values = higher affinity; below 35% = significant binding
How it was run: as §2

LCK = biological target: T6, LCK (Homo sapiens, UniProt P06239); experiment: DiscoverX KINOMEscan competition binding assay; settings: compound 10 µM; lower values = higher affinity; below 35% = significant binding
T6 construct: purchased DiscoverX (KINOMEscan service); host or cells: E. coli BL21-derived host (T7 phage) or HEK-293
How it was run: as §2

BRAF [8] = biological target: T3, BRAF; experiment: DiscoverX KINOMEscan competition binding assay; settings: compound 10 µM; lower values = higher affinity; below 35% = significant binding
How it was run: as §2

MET = biological target: T7, MET (Homo sapiens, UniProt P08581); experiment: DiscoverX KINOMEscan competition binding assay; settings: compound 10 µM; lower values = higher affinity; below 35% = significant binding
T7 construct: purchased DiscoverX (KINOMEscan service); host or cells: E. coli BL21-derived host (T7 phage) or HEK-293
How it was run: as §2

CDK2 = biological target: T8, CDK2 (Homo sapiens, UniProt P24941); experiment: DiscoverX KINOMEscan competition binding assay; settings: compound 10 µM; lower values = higher affinity; below 35% = significant binding
T8 construct: purchased DiscoverX (KINOMEscan service); host or cells: E. coli BL21-derived host (T7 phage) or HEK-293
How it was run: as §2

VEGFR2 = biological target: T9, VEGFR2 (Homo sapiens, UniProt P35968); experiment: DiscoverX KINOMEscan competition binding assay; settings: compound 10 µM; lower values = higher affinity; below 35% = significant binding
T9 construct: purchased DiscoverX (KINOMEscan service); host or cells: E. coli BL21-derived host (T7 phage) or HEK-293
T9 sequence (P35968 20-1356): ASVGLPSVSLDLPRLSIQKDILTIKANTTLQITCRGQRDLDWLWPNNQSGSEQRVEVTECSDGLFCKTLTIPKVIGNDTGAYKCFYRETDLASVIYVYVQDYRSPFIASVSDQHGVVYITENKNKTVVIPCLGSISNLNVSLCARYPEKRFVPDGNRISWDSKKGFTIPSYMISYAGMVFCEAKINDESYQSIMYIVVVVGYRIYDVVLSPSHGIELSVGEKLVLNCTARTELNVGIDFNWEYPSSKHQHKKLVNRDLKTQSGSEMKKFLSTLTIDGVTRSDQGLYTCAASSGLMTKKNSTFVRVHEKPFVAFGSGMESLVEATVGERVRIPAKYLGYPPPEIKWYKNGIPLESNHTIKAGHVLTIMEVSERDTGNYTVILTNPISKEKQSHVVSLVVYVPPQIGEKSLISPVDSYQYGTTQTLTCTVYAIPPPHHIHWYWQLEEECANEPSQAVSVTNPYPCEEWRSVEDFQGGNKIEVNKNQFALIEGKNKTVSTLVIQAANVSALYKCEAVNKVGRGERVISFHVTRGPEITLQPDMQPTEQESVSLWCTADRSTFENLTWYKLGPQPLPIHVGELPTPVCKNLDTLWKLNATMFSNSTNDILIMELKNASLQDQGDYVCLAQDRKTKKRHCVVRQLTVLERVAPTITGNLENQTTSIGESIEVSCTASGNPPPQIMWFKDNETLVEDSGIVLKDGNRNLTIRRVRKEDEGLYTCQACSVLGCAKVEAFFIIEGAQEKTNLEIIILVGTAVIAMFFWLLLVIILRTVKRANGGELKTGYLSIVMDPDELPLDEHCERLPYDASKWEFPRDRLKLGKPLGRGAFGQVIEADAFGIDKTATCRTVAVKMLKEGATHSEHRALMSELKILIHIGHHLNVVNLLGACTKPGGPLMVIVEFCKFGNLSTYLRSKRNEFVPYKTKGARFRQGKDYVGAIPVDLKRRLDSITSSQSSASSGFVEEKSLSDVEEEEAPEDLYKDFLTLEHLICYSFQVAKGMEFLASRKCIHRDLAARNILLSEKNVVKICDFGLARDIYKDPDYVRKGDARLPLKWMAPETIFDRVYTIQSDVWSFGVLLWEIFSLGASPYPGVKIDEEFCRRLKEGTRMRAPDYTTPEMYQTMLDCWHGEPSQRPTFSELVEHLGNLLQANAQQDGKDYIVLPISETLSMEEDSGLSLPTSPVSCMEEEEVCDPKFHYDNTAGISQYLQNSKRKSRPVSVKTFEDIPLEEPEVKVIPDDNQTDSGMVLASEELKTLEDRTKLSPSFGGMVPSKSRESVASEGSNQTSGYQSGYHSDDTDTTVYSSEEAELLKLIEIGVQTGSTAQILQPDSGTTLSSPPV
How it was run: as §2

SMILES: Cc1nc(Nc2ncc(C(=O)Nc3c(C)cccc3Cl)s2)cc(N2CCN(CCO)CC2)n1 [dasatinib]
kinase binding spectrum (panel of 290 kinases; TKs): binds to a broad spectrum of TKs with high affinity

SMILES: CCN(CC)CCNC(=O)c1c(C)[nH]c(/C=C2\C(=O)Nc3ccc(F)cc32)c1C [Sunitinib]
fraction of kinases bound in a panel (panel of 290 kinases; panel of 290 kinases): more than 50%

% inhibition of control activity, ErbB2 (Eurofins) (ErbB2 [1]): -7.4 (1.0) % inhibition
% inhibition of control activity, EGFR (Eurofins) (EGFR [2]): 3.4 (1.8) % inhibition
% inhibition of control activity, BRAF (Eurofins) (BRAF [3]): -14.7 (7.4) % inhibition
% inhibition of control activity, PI3K (Eurofins) (PI3K [4]): -2.8 (0.6) % inhibition
% control, PI3K (DiscoverX) (PI3K [5]): 100 % control
% control, ErbB2 (DiscoverX) (ErbB2 [6]): 100 % control
% control, p38α (DiscoverX) (p38α): 100 % control
% control, EGFR (DiscoverX) (EGFR [7]): 100 % control
% control, LCK (DiscoverX) (LCK): 96 % control
% control, BRAF (DiscoverX) (BRAF [8]): 97 % control
% control, MET (DiscoverX) (MET): 100 % control
% control, CDK2 (DiscoverX) (CDK2): 99 % control
% control, VEGFR2 (DiscoverX) (VEGFR2): 100 % control
SMILES: C[C@H](COCC(F)(F)F)NC(=O)Cc1n[nH]c(=O)c2ccccc12 [DS04644]
